# Read-outs that look alike come from different tables or passages of the source.
# Assays:
# [1] = test system: recombinant NL4-3 virus (nef section replaced with Renilla luciferase gene) in MT-2 cells; test: HIV cell culture assay (antiviral activity, luciferase readout); assay type: cell-based; conditions: Renilla, NL43, MT-2 cells infected for 4-5 days with recombinant NL4-3 Renilla luciferase virus
# In short: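 The reporter virus was produced by transfecting 293T cells with the NL4-3 nef/Renilla luciferase proviral clone. MT-2 cells were infected for 4–5 days with serial compound dilutions present. Luciferase was read with a live-cell substrate, and EC50 came from the exponential median-effect equation.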
# [2] = Compound cytotoxicity, XTT-based colorimetric assay; assay type: cell-based; conditions: human
# In short: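 CC50 derived from XTT colorimetric signal measured on day 4 in MT2 cells that were not infected. All other steps followed the antiviral assay protocol.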
# [3] = uninfected MT2 cells, day 4, XTT, read-out: CC50
smiles,measurement,setting,value
"C[C@@H]1CN(Cc2cc(C3CCC(F)(F)CC3)nc3nc([C@H](Cc4cc(F)cc(F)c4)NC(=O)Cn4nc(C(F)F)c5c4C(F)(F)[C@@H]4C[C@H]54)n(-c4ccc(Cl)c5c(NS(C)(=O)=O)nn(CCN6C[C@H](F)C[C@H](F)C6)c45)c(=O)c23)C[C@H](C)O1 (atropisomer, axis not shown; (P)) [Example 526, N-[(1S)-1-[(3P)-3-(4-chloro-1-{2-[(3R,5S)-3,5-difluoropiperidin-1-yl]ethyl}-3-methanesulfonamido-1H-indazol-7-yl)-7-(4,4-difluorocyclohexyl)-5-{[(2R,6S)-2,6-dimethylmorpholin-4-yl]methyl}-4-oxo-3H,4H-pyrido[2,3-d]pyrimidin-2-yl]-2-(3,5-difluorophenyl)ethyl]-2-[(2S,4R)-9-(difluoromethyl)-5,5-difluoro-7,8-diazatricyclo[4.3.0.0^2,^4]nona-1(6),8-dien-7-yl]acetamide]",EC50,[1],0.014 nM
same,CC50 at 4 days,[2]; [3],> 20 nM
"Cc1cc(C2(C)CCC(F)(F)CC2)nc2nc([C@H](Cc3cc(F)cc(F)c3)NC(=O)Cn3nc(C4CC4)c4c3C[C@@H]3C[C@H]43)n(-c3ccc(Cl)c4c(NS(C)(=O)=O)nn(CCN5CC(C)(C)OC(C)(C)C5)c34)c(=O)c12 (atropisomer, axis not shown; (P)) [Example 506, N-[(1S)-1-[(3P)-3-{4-chloro-3-methanesulfonamido-1-[2-(2,2,6,6-tetramethylmorpholin-4-yl)ethyl]-1H-indazol-7-yl}-7-(4,4-difluoro-1-methylcyclohexyl)-5-methyl-4-oxo-3H,4H-pyrido[2,3-d]pyrimidin-2-yl]-2-(3,5-difluorophenyl)ethyl]-2-[(2S,4S)-9-cyclopropyl-7,8-diazatricyclo[4.3.0.0^2,^4]nona-1(6),8-dien-7-yl]acetamide]",EC50,[1],0.027 nM
same,CC50 at 4 days,[2]; [3],> 20 nM
"CS(=O)(=O)Nc1nn(CCN2CCOC(C(F)F)C2)c2c(-n3c([C@H](Cc4cc(F)cc(F)c4)NC(=O)Cn4nc(C(F)F)c5c4C(F)(F)[C@@H]4C[C@H]54)nc4nc(C5CCC(F)(F)CC5)ccc4c3=O)ccc(Cl)c12 (stereo partly drawn) [Example 187, N-[(1S)-1-[(3P)-3-(4-chloro-1-{2-[2-(difluoromethyl)morpholin-4-yl]ethyl}-3-methanesulfonamido-1H-indazol-7-yl)-7-(4,4-difluorocyclohexyl)-4-oxo-3H,4H-pyrido[2,3-d]pyrimidin-2-yl]-2-(3,5-difluorophenyl)ethyl]-2-[(2S,4R)-9-(difluoromethyl)-5,5-difluoro-7,8-diazatricyclo[4.3.0.0^2,4]nona-1(6),8-dien-7-yl]acetamide]",EC50,[1],0.032 nM
same,CC50 at 4 days,[2]; [3],> 50 nM
"Cc1cc(C2CCC(F)(F)CC2)nc2nc([C@H](Cc3cc(F)cc(F)c3)NC(=O)Cn3nc(C(F)F)c4c3C(F)(F)[C@@H]3C[C@H]43)n(-c3ccc(Cl)c4c(NS(C)(=O)=O)nn([C@H](C)CN5CC(C)(C)OC(C)(C)C5)c34)c(=O)c12 (atropisomer, axis not shown; (P)) [Example 733, N-[(1S)-1-[(3P)-3-{4-chloro-3-methanesulfonamido-1-[(2R)-1-(2,2,6,6-tetramethylmorpholin-4-yl)propan-2-yl]-1H-indazol-7-yl}-7-(4,4-difluorocyclohexyl)-5-methyl-4-oxo-3H,4H-pyrido[2,3-d]pyrimidin-2-yl]-2-(3,5-difluorophenyl)ethyl]-2-[(2S,4R)-9-(difluoromethyl)-5,5-difluoro-7,8-diazatricyclo[4.3.0.0^2,^4]nona-1(6),8-dien-7-yl]acetamide]",EC50,[1],0.037 nM
same,CC50 at 4 days,[2]; [3],> 20 nM
"Cc1cc(C2CCC(F)(F)CC2)nc2nc([C@H](Cc3cc(F)cc(F)c3)NC(=O)Cn3nc(C(F)F)c4c3C(F)(F)[C@@H]3C[C@H]43)n(-c3ccc(Cl)c4c(NS(C)(=O)=O)nn(CCN5CCCC(F)(F)C5)c34)c(=O)c12 (atropisomer, axis not shown; (P)) [Example 14, N-[(1S)-1-[(3P)-3-{4-chloro-1-[2-(3,3-difluoropiperidin-1-yl)ethyl]-3-methanesulfonamido-1H-indazol-7-yl}-7-(4,4-difluorocyclohexyl)-5-methyl-4-oxo-3H,4H-pyrido[2,3-d]pyrimidin-2-yl]-2-(3,5-difluorophenyl)ethyl]-2-[(2S,4R)-9-(difluoromethyl)-5,5-difluoro-7,8-diazatricyclo[4.3.0.0^2,^4]nona-1(6),8-dien-7-yl]acetamide]",EC50,[1],0.009 nM
same,CC50 at 4 days,[2]; [3],> 50 nM
"Cc1cc(C2(F)CCC(F)(F)CC2)nc2nc([C@H](Cc3cc(F)cc(F)c3)NC(=O)Cn3nc(C4CC4)c4c3C[C@@H]3C[C@H]43)n(-c3ccc(Cl)c4c(NS(C)(=O)=O)nn(CCN5C[C@H](F)C[C@H](F)C5)c34)c(=O)c12 (atropisomer, axis not shown; (P)) [Example 12, N-[(1S)-1-[(3P)-3-(4-chloro-1-{2-[(3R,5S)-3,5-difluoropiperidin-1-yl]ethyl}-3-methanesulfonamido-1H-indazol-7-yl)-5-methyl-4-oxo-7-(1,4,4-trifluorocyclohexyl)-3H,4H-pyrido[2,3-d]pyrimidin-2-yl]-2-(3,5-difluorophenyl)ethyl]-2-[(2S,4S)-9-cyclopropyl-7,8-diazatricyclo[4.3.0.0^2,4]nona-1(6),8-dien-7-yl]acetamide]",EC50,[1],0.012 nM
same,CC50 at 4 days,[2]; [3],> 20000 nM
"Cc1cc(C2CCC(F)(F)CC2)nc2nc([C@H](Cc3cc(F)cc(F)c3)NC(=O)Cn3nc(C(F)F)c4c3C(F)(F)[C@@H]3C[C@H]43)n(-c3ccc(Cl)c4c(NS(C)(=O)=O)nn(CCN5C[C@@H](F)C[C@H](F)C5)c34)c(=O)c12 (atropisomer, axis not shown; (P)) [Example 446, N-[(1S)-1-[(3P)-3-(4-chloro-1-{2-[(3S,5S)-3,5-difluoropiperidin-1-yl]ethyl}-3-methanesulfonamido-1H-indazol-7-yl)-7-(4,4-difluorocyclohexyl)-5-methyl-4-oxo-3H,4H-pyrido[2,3-d]pyrimidin-2-yl]-2-(3,5-difluorophenyl)ethyl]-2-[(2S,4R)-9-(difluoromethyl)-5,5-difluoro-7,8-diazatricyclo[4.3.0.0^2,^4]nona-1(6),8-dien-7-yl]acetamide]",EC50,[1],0.009 nM
same,CC50 at 4 days,[2]; [3],> 20 nM
"CS(=O)(=O)Nc1nn(CCN2[C@@H]3CC[C@H]2CC(F)(F)C3)c2c(-n3c([C@H](Cc4cc(F)cc(F)c4)NC(=O)Cn4nc(C(F)F)c5c4C(F)(F)[C@@H]4C[C@H]54)nc4nc(C5CCC(F)(F)CC5)ccc4c3=O)ccc(Cl)c12 (atropisomer, axis not shown; (P)) [Example 43, N-[(1S)-1-[(3P)-3-(4-chloro-1-{2-[(1R,5S)-3,3-difluoro-8-azabicyclo[3.2.1]octan-8-yl]ethyl}-3-methanesulfonamido-1H-indazol-7-yl)-7-(4,4-difluorocyclohexyl)-4-oxo-3H,4H-pyrido[2,3-d]pyrimidin-2-yl]-2-(3,5-difluorophenyl)ethyl]-2-[(2S,4R)-9-(difluoromethyl)-5,5-difluoro-7,8-diazatricyclo[4.3.0.0^2,^4]nona-1(6),8-dien-7-yl]acetamide]",EC50,[1],0.021 nM
same,CC50 at 4 days,[2],> 50 nM
"COCCCn1nc(NS(C)(=O)=O)c2c(Cl)ccc(-n3c([C@H](Cc4cc(F)cc(F)c4)NC(=O)Cn4nc(C(F)F)c5c4C(F)(F)[C@@H]4C[C@H]54)nc4nc(C5CCC(F)(F)CC5)cc(NCC(C)(C)N5CCCCC5)c4c3=O)c21 (atropisomer, axis not shown; (P)) [Example 539, N-[(1S)-1-[(3P)-3-[4-chloro-3-methanesulfonamido-1-(3-methoxypropyl)-1H-indazol-7-yl]-7-(4,4-difluorocyclohexyl)-5-{[2-methyl-2-(piperidin-1-yl)propyl]amino}-4-oxo-3H,4H-pyrido[2,3-d]pyrimidin-2-yl]-2-(3,5-difluorophenyl)ethyl]-2-[(2S,4R)-9-(difluoromethyl)-5,5-difluoro-7,8-diazatricyclo[4.3.0.0^2,^4]nona-1(6),8-dien-7-yl]acetamide]",EC50,[1],0.006 nM
same,CC50 at 4 days,[2]; [3],> 20 nM
"Cc1cc(C2CCC(F)(F)CC2)nc2nc([C@H](Cc3cc(F)cc(F)c3)NC(=O)Cn3nc(C(F)F)c4c3C(F)(F)[C@@H]3C[C@H]43)n(-c3ccc(Cl)c4c(NS(C)(=O)=O)nn(CCN5CCC(C)(F)CC5)c34)c(=O)c12 (atropisomer, axis not shown; (P)) [Example 271, N-[(1S)-1-[(3P)-3-{4-chloro-1-[2-(4-fluoro-4-methylpiperidin-1-yl)ethyl]-3-methanesulfonamido-1H-indazol-7-yl}-7-(4,4-difluorocyclohexyl)-5-methyl-4-oxo-3H,4H-pyrido[2,3-d]pyrimidin-2-yl]-2-(3,5-difluorophenyl)ethyl]-2-[(2S,4R)-9-(difluoromethyl)-5,5-difluoro-7,8-diazatricyclo[4.3.0.0^2,^4]nona-1(6),8-dien-7-yl]acetamide]",EC50,[1],0.015 nM
same,CC50 at 4 days,[2]; [3],> 50 nM
"Cc1cc(C2CCC(F)(F)CC2)nc2nc([C@H](Cc3cc(F)cc(F)c3)NC(=O)Cn3nc(C(F)F)c4c3C(F)(F)[C@@H]3C[C@H]43)n(-c3ccc(Cl)c4c(NS(C)(=O)=O)nn(CC(=O)N(C)[C@@H]5CCOC5)c34)c(=O)c12 (atropisomer, axis not shown; (P)) [Example 405, N-[(1S)-1-[(3P)-3-[4-chloro-3-methanesulfonamido-1-({methyl[(3R)-oxolan-3-yl]carbamoyl}methyl)-1H-indazol-7-yl]-7-(4,4-difluorocyclohexyl)-5-methyl-4-oxo-3H,4H-pyrido[2,3-d]pyrimidin-2-yl]-2-(3,5-difluorophenyl)ethyl]-2-[(2S,4R)-9-(difluoromethyl)-5,5-difluoro-7,8-diazatricyclo[4.3.0.0^2,^4]nona-1(6),8-dien-7-yl]acetamide]",EC50,[1],0.034 nM
same,CC50 at 4 days,[2]; [3],> 20 nM

# Source: patent publication US12594276B2, “Inhibitors of human immunodeficiency virus replication” (ViiV Healthcare UK (No.5) Limited, priority 2024, dated 2026)
